Biological target: recombinant human ATX (Homo sapiens, UniProt Q13822)
Test: Choline detection assay for ATX
Format: biochemical
Conditions: for ATX activity (%) 1 μM: 1 μM test compound; for ATX activity (%) 1 μM / ATX activity (%) 10 Mm / ATX activity (%) 100 μM / ATX activity (%) 10 μM: activity without test compound = 100%; for ATX activity (%) 10 Mm: 10 μM test compound as printed; for ATX activity (%) 100 μM: 100 μM test compound; for ATX inhibition (in words): compounds synthesized from D-tyrosine; for ATX activity (%) 10 μM: 10 μM test compound
Method: The phosphonate derivatives were tested in choline detection assay for ATX inhibition. The ATX activity assay was conducted in 0.1 ml, buffer: (in mM: Tris-HCl 100, pH9, NaCl 150, MgCl2 5, CoSO4 0.03, 0.05% Triton X-100), 1 mM 18:1 LPC, using recombinant human ATX with or without test compounds; incubation was for 16 hours at 37° C. The released choline was detected as follows: Samples were mixed with 0.15 ml of 50 mM TrisHCl containing 2.7 mM TOOS(N-ethyl-N-2-hydroxy-3-sulfopropyl)-m-toluidine, 2.7 mM 4-AAP (4-aminoantipyrine), 47.7 U/ml horseradish peroxidase, 18 U/ml choline oxidase, and 5 mM MgCl2. After 30 min incubation at 37° C., light absorbance (550 nm) was determined, and the amount of choline release was calculated from a standard curve.
The ATX activity was measured in the presence of the test compounds under different concentrations (100 μM, 10 μM and 1 μM). The ATX activity without TEST compounds was used as the standard (100% activity). Some β-hydroxy phosphonate derivatives inhibited ATX activity at only the highest concentration tested. […] These two compounds were synthesized from protected L-tyrosine and they are diastereomers. The less polar isomer, f17, (also known as VPC8a202) was able to inhibit 73% of ATX activity at 1 μM.

[1] = table of g1-g15 (β-keto phosphonates)

Structure (SMILES) | ATX activity (%) 1 μM (Table 1 (f1-f34), 1 µM) [%] | ATX activity (%) 10 Mm (Table 1 (f1-f34)) [%] | ATX activity (%) 100 μM (Table 1 (f1-f34), 100 µM) [%] | further results
CCCCCCCCCCCCCCCC(=O)N[C@H](Cc1ccc(OCc2ccccc2)cc1)C(O)CP(=O)(O)O (single isomer, unassigned) [f5] | 83 | 82 | 83 | 
CCCCCCCCCCCCCCCC(=O)N[C@H](Cc1ccc(OCc2ccccc2)cc1)C(O)CP(=O)(O)O (single isomer, unassigned) [f6] | 80 | 81 | 83 | 
CCCCCCCCCCCCCCCC(=O)N[C@@H](Cc1ccc(OCc2ccccc2)cc1)C(O)CP(=O)(O)O (single isomer, unassigned) [f7] | 97 | 77 | 68 | 
CCCCCCCCCCCCCCCC(=O)N[C@@H](Cc1ccc(OCc2ccccc2)cc1)C(O)CP(=O)(O)O (single isomer, unassigned) [f8] | 76 | 83 | 78 | 
CCCCCCCCCCCCCCCC(=O)N[C@H](Cc1ccc(OCc2ccccc2)cc1)C(O)CP(=O)(O)O (single isomer, unassigned) [f9] | 103 | 76 | 60 | 
CCCCCCCCCCCCCCCC(=O)N[C@H](Cc1ccc(OCC2CCCCC2)cc1)C(O)CP(=O)(O)O (single isomer, unassigned) [f13] |  | 80 |  | ATX activity (%) 1 μM (Table 1 (f1-f34)): 84%; ATX activity (%) 100 μM (Table 1 (f1-f34)): 67%
CCCCCCCCCCCCCCCC(=O)N[C@@H](Cc1ccc(OCC2CCCCC2)cc1)C(O)CP(=O)(O)O (single isomer, unassigned) [f14] |  | 80 |  | ATX activity (%) 1 μM (Table 1 (f1-f34)): 80%; ATX activity (%) 100 μM (Table 1 (f1-f34)): 80%
CCCCCCCCCCCCCCCC(=O)N[C@H](Cc1ccc(OCc2ncc(C)c(OC)c2C)cc1)C(O)CP(=O)(O)O (single isomer, unassigned) [f15] | 108 | 95 | 63 | ATX inhibition (in words): did potently inhibit ATX
CCCCCCCCCCCCCCCC(=O)N[C@H](Cc1ccc(OCc2ncc(C)c(OC)c2C)cc1)C(O)CP(=O)(O)O (single isomer, unassigned) [f16] | 69 | 64 | 47 | ATX inhibition (in words): did potently inhibit ATX
CCCCCCCCCCCCCCCC(=O)N[C@@H](Cc1ccc(OCc2ncc(C)c(OC)c2C)cc1)C(O)CP(=O)(O)O (single isomer, unassigned) [f18] |  | 21 |  | ATX activity (%) 1 μM (Table 1 (f1-f34)): 63%; ATX activity (%) 100 μM (Table 1 (f1-f34)): 8%; inhibition of ATX (in words) (at 1 μM): significant inhibition
CCCCCCCCCCCCCCCC(=O)N[C@H](Cc1ccc(OC)cc1)C(O)CP(=O)(O)O (single isomer, unassigned) [f19] | 100 | 78 | 57 | 
CCCCCCCCCCCCCCCC(=O)N[C@H](Cc1ccc(OC)cc1)C(O)CP(=O)(O)O (single isomer, unassigned) [f20] | 95 | 84 | 82 | 
CCCCCCCCCCCCCCCC(=O)N[C@@H](Cc1ccc(OC)cc1)C(O)CP(=O)(O)O (single isomer, unassigned) [f21] | 77 | 56 | 36 | 
CCCCCCCCCCCCCCCC(=O)N[C@@H](Cc1ccc(OC)cc1)C(O)CP(=O)(O)O (single isomer, unassigned) [f22] | 84 | 80 | 69 | 
CCCCCCCCCCCCCCCC(=O)N[C@H](Cc1ccc(OCCC)cc1)C(O)CP(=O)(O)O (single isomer, unassigned) [f23] | 80 | 79 | 72 | 
CCCCCCCCCC(=O)N[C@H](Cc1ccc(OCc2ncc(C)c(OC)c2C)cc1)C(O)CP(=O)(O)O (single isomer, unassigned) [f35] |  |  |  | ATX activity (%) 10 μM (Table 2 (f35-f44)): 86%; ATX activity (%) 100 μM (Table 2 (f35-f44)): 30%
CCCCCCCCCCCCCC(=O)N[C@H](Cc1ccc(OCc2ncc(C)c(OC)c2C)cc1)C(O)CP(=O)(O)O (single isomer, unassigned) [f37] |  |  |  | ATX activity (%) 10 μM (Table 2 (f35-f44)): 99%; ATX activity (%) 100 μM (Table 2 (f35-f44), 100 µM): 67%
CCCCCCCCCCCCCC(=O)N[C@H](Cc1ccc(OCc2ncc(C)c(OC)c2C)cc1)C(O)CP(=O)(O)O (single isomer, unassigned) [f38] |  |  |  | ATX activity (%) 100 μM (Table 2 (f35-f44), 100 µM): 35%
CCCCCCCCCCCCCCCCCC(=O)N[C@@H](Cc1ccc(OCc2ncc(C)c(OC)c2C)cc1)C(O)CP(=O)(O)O (single isomer, unassigned) [f39] |  |  |  | ATX activity (%) 1 μM (Table 2 (f35-f44)): 101%; ATX activity (%) 10 μM (Table 2 (f35-f44), 10 µM): 91%; ATX activity (%) 100 μM (Table 2 (f35-f44), 100 µM): 81%
CCCCCCCCCCCCCCCCCC(=O)N[C@@H](Cc1ccc(OCc2ncc(C)c(OC)c2C)cc1)C(O)CP(=O)(O)O (single isomer, unassigned) [f40] |  |  |  | ATX activity (%) 10 μM (Table 2 (f35-f44), 10 µM): 90%; ATX activity (%) 100 μM (Table 2 (f35-f44), 100 µM): 62%
CCCCCCCC/C=C\CCCCCCCC(=O)N[C@@H](Cc1ccc(OCc2ncc(C)c(OC)c2C)cc1)C(O)CP(=O)(O)O (single isomer, unassigned) [f41] |  |  |  | ATX activity (%) 10 μM (Table 2 (f35-f44), 10 µM): 45%; ATX activity (%) 100 μM (Table 2 (f35-f44), 100 µM): 15%
CCCCCCCC/C=C\CCCCCCCC(=O)N[C@@H](Cc1ccc(OCc2ncc(C)c(OC)c2C)cc1)C(O)CP(=O)(O)O (single isomer, unassigned) [f42] |  |  |  | ATX activity (%) 1 μM (Table 2 (f35-f44)): 77%; ATX activity (%) 10 μM (Table 2 (f35-f44), 10 µM): 68%; ATX activity (%) 100 μM (Table 2 (f35-f44), 100 µM): 58%
CCCCCCCCCCCCCCCCCCCC(=O)NC(Cc1ccc(OCc2ncc(C)c(OC)c2C)cc1)C(O)CP(=O)(O)O (single isomer, unassigned) [f43] |  |  |  | ATX activity (%) 1 μM (Table 2 (f35-f44)): 64%; ATX activity (%) 10 μM (Table 2 (f35-f44)): 45%; ATX activity (%) 100 μM (Table 2 (f35-f44)): 10%
CCCCCCCCCCCCCCCC(=O)N[C@H](Cc1ccc(OCc2ccccc2)cc1)C(=O)CP(=O)(O)O [g3] |  |  |  | ATX activity (%) 10 μM [1]: 82%; ATX activity (%) 100 μM [1]: 76%
CCCCCCCCCCCCCCCC(=O)N[C@@H](Cc1ccc(OCc2ccccc2)cc1)C(=O)CP(=O)(O)O [g4] |  |  |  | ATX activity (%) 10 μM [1]: 71%; ATX activity (%) 100 μM [1]: 61%
CCCCCCCCCCCCCCCC(=O)N[C@@H](Cc1ccc(OCc2ncc(C)c(OC)c2C)cc1)C(=O)CP(=O)(O)O [g7] |  |  |  | ATX activity (%) 1 μM [1]: 71%; ATX activity (%) 10 μM [1]: 74%; ATX activity (%) 100 μM [1]: 26%
CCCCCCCCCCCCCCCC(=O)N[C@H](Cc1ccc(OC)cc1)C(=O)CP(=O)(O)O [g8] |  |  |  | ATX activity (%) 1 μM [1]: 84%; ATX activity (%) 10 μM [1]: 71%; ATX activity (%) 100 μM [1]: 32%
CCCCCCCCCCCCCCCC(=O)N[C@@H](Cc1ccc(OC)cc1)C(=O)CP(=O)(O)O [g9] |  |  |  | ATX activity (%) 1 μM [1]: 96%; ATX activity (%) 10 μM [1]: 68%; ATX activity (%) 100 μM [1]: 45%

Continued, in another order:

ATX activity (%) 1 μM (Table 1 (f1-f34), 1 µM) [%] | ATX activity (%) 10 Mm (Table 1 (f1-f34)) [%] | ATX activity (%) 100 μM (Table 1 (f1-f34), 100 µM) [%] | Structure (SMILES) | further results
108 | 108 | 90 | CCCCCCCCCCCCCCCC(=O)N[C@H](Cc1ccc(OCCC)cc1)C(O)CP(=O)(O)O (single isomer, unassigned) [f24] | 
110 | 97 | 77 | CCCCCCCCCCCCCCCC(=O)N[C@@H](Cc1ccc(OCCC)cc1)C(O)CP(=O)(O)O (single isomer, unassigned) [f25] | 
100 | 100 | 83 | CCCCCCCCCCCCCCCC(=O)N[C@@H](Cc1ccc(OCCC)cc1)C(O)CP(=O)(O)O (single isomer, unassigned) [f26] | 
81 | 85 | 80 | CCCCCCCCCCCCCCCC(=O)N[C@H](Cc1ccc(OCCCCC)cc1)C(O)CP(=O)(O)O (single isomer, unassigned) [f27] | 
86 | 82 | 70 | CCCCCCCCCCCCCCCC(=O)N[C@H](Cc1ccc(OCCCCC)cc1)C(O)CP(=O)(O)O (single isomer, unassigned) [f28] | 
98 | 83 | 67 | CCCCCCCCCCCCCCCC(=O)N[C@@H](Cc1ccc(OCCCCC)cc1)C(O)CP(=O)(O)O (single isomer, unassigned) [f29] | 
94 | 90 | 70 | CCCCCCCCCCCCCCCC(=O)N[C@@H](Cc1ccc(OCCCCC)cc1)C(O)CP(=O)(O)O (single isomer, unassigned) [f30] | 
